Patent US10385024B2, “Compounds and methods for inhibiting NHE-mediated antiport in the treatment of disorders associated with fluid retention or salt overload and gastrointestinal tract disorders” (Ardelyx, Inc., priority 2012, dated 2019)

What was measured:
[1] = target: T1, human NHE-3 (Homo sapiens, UniProt P48764); assay: Cell-based assay of NHE-3 activity (human NHE3 inhibition assay); conditions: OK cells with human NHE-3 gene, BCECF pH dye, 0-30 μM test compound; for IC50: read-out: Human NHE3 pIC50 (converted)
T1 construct: expressed in transfected cells; host or cells: Opossum kidney (OK) cells (ATCC), transfected by electroporation
T1 sequence (P48764 26-834): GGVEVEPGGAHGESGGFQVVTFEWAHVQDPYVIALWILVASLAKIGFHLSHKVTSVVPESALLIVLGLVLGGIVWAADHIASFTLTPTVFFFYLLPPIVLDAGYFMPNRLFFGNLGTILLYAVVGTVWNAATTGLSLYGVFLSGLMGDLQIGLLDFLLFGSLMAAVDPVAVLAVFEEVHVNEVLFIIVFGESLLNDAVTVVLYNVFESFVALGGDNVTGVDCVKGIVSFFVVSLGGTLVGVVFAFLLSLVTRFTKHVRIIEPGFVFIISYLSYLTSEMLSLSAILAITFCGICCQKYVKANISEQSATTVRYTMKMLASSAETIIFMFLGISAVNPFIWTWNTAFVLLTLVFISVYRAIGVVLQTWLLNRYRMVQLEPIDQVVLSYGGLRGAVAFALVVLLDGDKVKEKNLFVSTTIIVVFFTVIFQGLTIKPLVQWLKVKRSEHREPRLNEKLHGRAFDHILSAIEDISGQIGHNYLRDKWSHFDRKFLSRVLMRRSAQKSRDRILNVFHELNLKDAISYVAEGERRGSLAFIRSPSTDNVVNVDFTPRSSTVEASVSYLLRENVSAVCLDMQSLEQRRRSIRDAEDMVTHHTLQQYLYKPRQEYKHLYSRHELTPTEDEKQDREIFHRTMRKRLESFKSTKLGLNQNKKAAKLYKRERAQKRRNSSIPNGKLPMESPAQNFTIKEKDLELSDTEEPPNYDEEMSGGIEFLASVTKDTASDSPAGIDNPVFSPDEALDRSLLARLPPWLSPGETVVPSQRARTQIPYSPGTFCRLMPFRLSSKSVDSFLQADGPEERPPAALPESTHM
Description: (§1) Rat or human NHE-3-mediated Na^+-dependent H^+ antiport was measured using a modification of the pH sensitive dye method originally reported by Paradiso (Proc. Natl. Acad. Sci. USA. (1984) 81(23): 7436-7440). Opossum kidney (OK) cells were obtained from the ATCC and propagated per their instructions. The rat NHE-3 gene (GenBank M85300) or the human NHE-3 gene (GenBank NM_004174.1) was introduced into OK cells via electroporation, and cells were seeded into 96 well plates and grown overnight. Medium was aspirated from the wells, cells were washed twice with NaCl-HEPES buffer (100 mM NaCl, 50 mM HEPES, 10 mM glucose, 5 mM KCl, 2 mM CaCl2, 1 mM MgCl2, pH 7.4), then incubated for 30 min at room temperature with NH4Cl-HEPES buffer (20 mM NH4Cl, 80 mM NaCl, 50 mM HEPES, 5 mM KCl, 2 mM CaCl2, 1 mM MgCl2, pH 7.4) containing 5 μM bis(acetoxymethyl) 3,3′-(3′,6′-bis(acetoxymethoxy)-5-((acetoxymethoxy)carbonyl)-3-oxo-3H-spiro[isobenzofuran-1,9′-xanthene]-2′,7′-diyl)dipropanoate (BCECF-AM). Cells were washed twice with Ammonium free, Na^+-free HEPES (100 mM choline, 50 mM HEPES, 10 mM glucose, 5 mM KCl, 2 mM CaCl2, 1 mM MgCl2, pH 7.4) and incubated in the same buffer for 10 minutes at room temperature to lower intracellular pH. […] Initial rates were plotted as the average 2 or more replicates, and pIC50 values were estimated using GraphPad Prism.

[2] = target: T2, Rat NHE-3 (Rattus norvegicus, UniProt P26433); assay: Cell-based assay of NHE-3 activity (rat NHE-3 prompt inhibition); conditions: OK cells with rat NHE-3 gene, compound present during pH recovery; for IC50: read-out: Rat NHE3 pIC50 (prompt) (converted)
T2 construct: expressed in transfected cells; host or cells: Opossum kidney (OK) cells (ATCC), transfected by electroporation
T2 sequence (P26433 29-831): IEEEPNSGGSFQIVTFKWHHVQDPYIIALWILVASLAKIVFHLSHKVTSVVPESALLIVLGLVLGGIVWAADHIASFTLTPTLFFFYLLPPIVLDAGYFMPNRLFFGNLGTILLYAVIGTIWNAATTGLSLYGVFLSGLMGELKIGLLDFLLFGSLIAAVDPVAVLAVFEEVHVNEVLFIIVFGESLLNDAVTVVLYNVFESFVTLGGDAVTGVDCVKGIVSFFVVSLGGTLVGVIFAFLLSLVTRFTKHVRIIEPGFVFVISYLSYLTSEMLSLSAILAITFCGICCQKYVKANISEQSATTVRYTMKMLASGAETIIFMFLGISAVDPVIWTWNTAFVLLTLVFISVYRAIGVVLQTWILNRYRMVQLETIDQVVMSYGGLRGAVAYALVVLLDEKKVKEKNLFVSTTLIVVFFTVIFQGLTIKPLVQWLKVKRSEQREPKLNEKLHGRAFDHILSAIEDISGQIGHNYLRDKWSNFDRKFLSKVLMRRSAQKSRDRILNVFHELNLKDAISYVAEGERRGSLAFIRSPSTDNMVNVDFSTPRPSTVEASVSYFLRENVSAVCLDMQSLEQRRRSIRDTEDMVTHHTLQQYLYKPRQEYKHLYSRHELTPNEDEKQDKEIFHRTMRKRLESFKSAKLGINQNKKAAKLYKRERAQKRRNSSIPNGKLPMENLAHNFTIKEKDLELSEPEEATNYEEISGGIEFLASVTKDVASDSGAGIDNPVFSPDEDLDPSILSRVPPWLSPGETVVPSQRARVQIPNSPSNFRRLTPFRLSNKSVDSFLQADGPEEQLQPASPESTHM
Description: as §1

[3] = target: T2, Rat NHE-3; assay: Cell-based assay of NHE-3 activity (persistent inhibition, after washout); conditions: OK cells with rat NHE-3 gene, 60 min incubation, recovery initiated 40 min after compound washout; for IC50: read-out: Rat NHE3 pIC50 (persistent) (converted)
Description: The ability of compounds to inhibit Rat NHE-3-mediated Na^+-dependent H^+ antiport after application and washout was measured using a modification of the pH sensitive dye method described above in Example 74. Opossum kidney (OK) cells were obtained from the ATCC and propagated per their instructions. The rat NHE-3 gene was introduced into OK cells via electroporation, and cells were seeded into 96 well plates and grown overnight. Medium was aspirated from the wells, cells were washed twice with NaCl-HEPES buffer (100 mM NaCl, 50 mM HEPES, 10 mM glucose, 5 mM KCl, 2 mM CaCl2, 1 mM MgCl2, pH 7.4), then overlayed with NaCl-HEPES buffer containing 0-30 μM test compound. After a 60 min incubation, the test drug containing buffer was aspirated from the cells, cells were washed twice with NaCl-HEPES buffer without drug, then incubated for 30 min at room temperature with NH4Cl-HEPES buffer (20 mM NH4Cl, 80 mM NaCl, 50 mM HEPES, 5 mM KCl, 2 mM CaCl2, 1 mM MgCl2, pH 7.4) containing 5 μM BCECF-AM. Cells were washed twice with ammonium free, Na^+-free HEPES (100 mM choline, 50 mM HEPES, 10 mM glucose, 5 mM KCl, 2 mM CaCl2, 1 mM MgCl2, pH 7.4) and incubated in the same buffer for 10 minutes at room temperature to lower intracellular pH. […] Initial rates were plotted as the average 2 or more replicates, and pIC50 values were estimated using GraphPad Prism.

IC50 [1]	IC50 [2]	IC50 [3]	Human NHE3 pIC50 [1]	Rat NHE3 pIC50 (prompt) [2]	Rat NHE3 pIC50 (persistent) [3]	Structure (SMILES)
> 10000 nM	> 10000 nM	< 100 nM	–	–	–	CN1Cc2c(Cl)cc(Cl)cc2[C@H](c2cccc(S(=O)(=O)NCCOCCOCCOCCNC(=O)CCC(CCC(=O)NCCOCCOCCOCCNS(=O)(=O)c3cccc([C@@H]4CN(C)Cc5c(Cl)cc(Cl)cc54)c3)(CCC(=O)NCCOCCOCCOCCNS(=O)(=O)c3cccc([C@@H]4CN(C)Cc5c(Cl)cc(Cl)cc54)c3)NCc3ccc(-c4ccc(Cl)cc4)cc3)c2)C1 [Example 19, 4-((4′-chlorobiphenyl-4-yl)methylamino)-4-(1-(3-((S)-6,8-dichloro-2-methyl-1,2,3,4-tetrahydroisoquinolin-4-yl)phenylsulfonamido)-13-oxo-3,6,9-trioxa-12-azapentadecan-15-yl)-N^1,N^7-bis(2-(2-(2-(2-(3-((S)-6,8-dichloro-2-methyl-1,2,3,4-tetrahydroisoquinolin-4-yl)phenylsulfonamido)ethoxy)ethoxy)ethoxy)ethyl)heptanediamide]
< 100 nM	100 to 10000 nM	< 100 nM	–	–	–	CCCCCCCCOc1ccc(CNC(CCC(=O)NCCOCCOCCOCCNS(=O)(=O)c2cccc([C@@H]3CN(C)Cc4c(Cl)cc(Cl)cc43)c2)(CCC(=O)NCCOCCOCCOCCNS(=O)(=O)c2cccc([C@@H]3CN(C)Cc4c(Cl)cc(Cl)cc43)c2)CCC(=O)NCCOCCOCCOCCNS(=O)(=O)c2cccc([C@@H]3CN(C)Cc4c(Cl)cc(Cl)cc43)c2)cc1 [Example 20, 4-(1-(3-((S)-6,8-dichloro-2-methyl-1,2,3,4-tetrahydroisoquinolin-4-yl)phenylsulfonamido)-13-oxo-3,6,9-trioxa-12-azapentadecan-15-yl)-N^1,N^7-bis(2-(2-(2-(2-(3-((S)-6,8-dichloro-2-methyl-1,2,3,4-tetrahydroisoquinolin-4-yl)phenylsulfonamido)ethoxy)ethoxy)ethoxy)ethyl)-4-(4-(octyloxy)benzylamino)heptanediamide]
–	–	–	B (B NHE3 pIC50 5-7)	A (A NHE3 pIC50 < 5)	B (B NHE3 pIC50 5-7)	CCCCCCCCCCC(=O)NC(CCC(=O)NCCOCCOCCNS(=O)(=O)c1cccc([C@@H]2CN(C)Cc3c(Cl)cc(Cl)cc32)c1)(CCC(=O)NCCOCCOCCNS(=O)(=O)c1cccc([C@@H]2CN(C)Cc3c(Cl)cc(Cl)cc32)c1)CCC(=O)NCCOCCOCCNS(=O)(=O)c1cccc([C@@H]2CN(C)Cc3c(Cl)cc(Cl)cc32)c1 [Example 22]
–	–	–	C (C NHE3 pIC50 > 7)	B (B NHE3 pIC50 5-7)	B (B NHE3 pIC50 5-7)	CCCCCCCCOc1ccc(CNC(CCC(=O)NCCOCCOCCNS(=O)(=O)c2cccc([C@@H]3CN(C)Cc4c(Cl)cc(Cl)cc43)c2)(CCC(=O)NCCOCCOCCNS(=O)(=O)c2cccc([C@@H]3CN(C)Cc4c(Cl)cc(Cl)cc43)c2)CCC(=O)NCCOCCOCCNS(=O)(=O)c2cccc([C@@H]3CN(C)Cc4c(Cl)cc(Cl)cc43)c2)cc1 [Example 23]
–	–	–	A (A NHE3 pIC50 < 5)	A (A NHE3 pIC50 < 5)	B (B NHE3 pIC50 5-7)	CN1Cc2c(Cl)cc(Cl)cc2[C@H](c2cccc(S(=O)(=O)NCCOCCOCCNC(=O)CCC(CCC(=O)NCCOCCOCCNS(=O)(=O)c3cccc([C@@H]4CN(C)Cc5c(Cl)cc(Cl)cc54)c3)(CCC(=O)NCCOCCOCCNS(=O)(=O)c3cccc([C@@H]4CN(C)Cc5c(Cl)cc(Cl)cc54)c3)NCc3ccc(-c4ccc(Cl)cc4)cc3)c2)C1 [Example 24]
< 100 nM	< 100 nM	< 100 nM	–	–	–	CN1Cc2c(Cl)cc(Cl)cc2[C@H](c2cccc(S(=O)(=O)NCCOCCOCCOCCNC(=O)CN(CCOCCOCCN(CC(=O)NCCOCCOCCOCCNS(=O)(=O)c3cccc([C@@H]4CN(C)Cc5c(Cl)cc(Cl)cc54)c3)CC(=O)NCCOCCOCCOCCNS(=O)(=O)c3cccc([C@@H]4CN(C)Cc5c(Cl)cc(Cl)cc54)c3)CC(=O)NCCOCCOCCOCCNS(=O)(=O)c3cccc([C@@H]4CN(C)Cc5c(Cl)cc(Cl)cc54)c3)c2)C1 [Example 42, 3,12-bis(14-(3-((S)-6,8-dichloro-2-methyl-1,2,3,4-tetrahydroisoquinolin-4-yl)phenylsulfonamido)-2-oxo-6,9,12-trioxa-3-azatetradecyl)-N^1,N^14-bis(2-(2-(2-(2-(3-((S)-6,8-dichloro-2-methyl-1,2,3,4-tetrahydroisoquinolin-4-yl)phenylsulfonamido)ethoxy)ethoxy)ethoxy)ethyl)-6,9-dioxa-3,12-diazatetradecane-1,14-diamide]
> 10000 nM	> 10000 nM	100 to 10000 nM	–	–	–	CN1Cc2c(Cl)cc(Cl)cc2[C@H](c2cccc(S(=O)(=O)NCCOCCOCCNC(=O)NCCN(CCNC(=O)NCCOCCOCCNS(=O)(=O)c3cccc([C@@H]4CN(C)Cc5c(Cl)cc(Cl)cc54)c3)C(=O)CCCCCCCCCCC(=O)N(CCNC(=O)NCCOCCOCCNS(=O)(=O)c3cccc([C@@H]4CN(C)Cc5c(Cl)cc(Cl)cc54)c3)CCNC(=O)NCCOCCOCCNS(=O)(=O)c3cccc([C@@H]4CN(C)Cc5c(Cl)cc(Cl)cc54)c3)c2)C1 [Example 44, N^1,N^1,N^12,N^12-tetrakis(13-(3-((S)-6,8-dichloro-2-methyl-1,2,3,4-tetrahydroisoquinolin-4-yl)phenylsulfonamido)-4-oxo-8,11-dioxa-3,5-diazatridecyl)dodecanediamide]
100 to 10000 nM	100 to 10000 nM	> 10000 nM	–	–	–	CN1Cc2c(Cl)cc(Cl)cc2[C@H](c2cccc(S(=O)(=O)NCCOCCOCCNC(=O)NCCN(CCNC(=O)NCCOCCOCCNS(=O)(=O)c3cccc([C@@H]4CN(C)Cc5c(Cl)cc(Cl)cc54)c3)C(=O)NCCCCCCCCCCCCNC(=O)N(CCNC(=O)NCCOCCOCCNS(=O)(=O)c3cccc([C@@H]4CN(C)Cc5c(Cl)cc(Cl)cc54)c3)CCNC(=O)NCCOCCOCCNS(=O)(=O)c3cccc([C@@H]4CN(C)Cc5c(Cl)cc(Cl)cc54)c3)c2)C1 [Example 45]
–	–	–	C (C NHE3 pIC50 > 7)	B (B NHE3 pIC50 5-7)	C (C NHE3 pIC50 > 7)	CN1Cc2c(Cl)cc(Cl)cc2[C@H](c2cccc(S(=O)(=O)NCCOCCOCCOCCNC(=O)CN(CC(=O)NCCOCCOCCOCCNS(=O)(=O)c3cccc([C@@H]4CN(C)Cc5c(Cl)cc(Cl)cc54)c3)[C@@H]3CCCC[C@H]3N(CC(=O)NCCOCCOCCOCCNS(=O)(=O)c3cccc([C@@H]4CN(C)Cc5c(Cl)cc(Cl)cc54)c3)CC(=O)NCCOCCOCCOCCNS(=O)(=O)c3cccc([C@@H]4CN(C)Cc5c(Cl)cc(Cl)cc54)c3)c2)C1 [Example 48]
